{"source": "patent US4622421A", "about": "“Phenylalkanoic acid derivatives and their use” (Sankyo Company Limited, priority 1983, dated 1986)", "key": {"[1]": {"test_system": "pressure-induced pain threshold", "assay": "Pain test for analgesic activity (modified Randall and Selitto, Brewers' yeast-inflamed paw)", "assay_type": "in vivo, Male Wistar-Imamichi rats", "details": "read-out: Analgesic activity, ED50", "method": "This test was conducted according to a modification of the method reported by L. O. Randall and J. J. Selitto in Arch. Int.\nMale Wistar-Imamichi rats of 4 weeks of age and weighing 60-90 g were injected with 0.1 ml of a 20% by weight suspension of Brewers' yeast in the right hind paw. […] Each of these was given orally a test compound as an aqueous tragacanth suspension. 1 and 2 hours after administration of the test compound, the pain threshold was determined by observing pain responses (such as struggling or squeaking) when the inflamed or normal paw was subjected to pressure by a machine (Ugo-Basile)."}, "[2]": {"test_system": "carrageenin-induced inflammation (hind paw oedema)", "assay": "Carrageenin oedema test for anti-inflammatory activity", "assay_type": "in vivo, Male Wistar rats", "details": "po, read-out: Anti-inflammatory activity, ID50", "method": "Male Wistar rats weighing 120-150 g were fasted overnight and then received a test compound per os as an aqueous tragacanth suspension. 30 minutes later, inflammation was induced by the subcutaneous injection of 0.05 ml of a 1% w/v carrageenin suspension into the plantar tissue of a hind paw of each rat [Winter et al., Proc. Soc. […] The anti-oedema activity was measured volumetrically, by assessing the response, as calculated from the following equation: Response=(V-Vo)/Vo where Vo and V represent, respectively, the paw volume immediately before and 3 hours after the carrageenin injection."}, "[3]": {"test_system": "IgM antibody-producing cells in the spleen", "assay": "Test for immuno-regulatory activity (Cunningham's method, IgM antibody production to sheep erythrocytes)", "assay_type": "in vivo, female mice of the BALB/c strain", "details": "mouse, oral, dose from 1 to 10 mg per kg, spleen after 5 days", "method": "The immuno-regulatory activity of (±)-2-[4-(cis-2-hydroxycyclohexylmethyl)phenyl]propionic acid was tested by Cunningham's method [A. J. Cunningham and A. Szenberg, Immunology 14, 599 (1968)]. The test compound was administered orally to female mice of the BALB/c strain and simultaneously sheep erythrocytes were administered intraperitonially, in order to sensitise the animal to these erythrocytes as an antigen. After 5 days, the spleen of the experimental animal was extracted and the number of IgM antibody-producingcells in the spleen cells was calculated."}, "[4]": {"details": "rat, oral, pain threshold 1 and 2 hours after administration, Litchfield and Wilcoxon"}, "[5]": {"details": "rat, per os, paw volume 3 hours after carrageenin, dose inhibiting the response by 50%"}}, "note": "Where two headings read alike, the source gives them in different places.", "data": [{"smiles": "CC(C(=O)O)c1ccc(C[C@@H]2CCCC[C@@H]2O)cc1", "note": "(mixture of isomers) [Compound 1, (±)-2-[4-(cis-2-hydroxycyclohexylmethyl)phenyl]propionic acid]", "values": [{"measurement": "ED50", "setting": "[1]; [4]", "value": 0.86, "unit": "mg/kg"}, {"measurement": "ED50", "setting": "[2]; [5]", "value": 3.3, "unit": "mg/kg"}, {"measurement": "percent inhibition of antibody production", "setting": "[3]", "value": "≥ 50", "unit": "%"}]}, {"smiles": "CC(C(=O)O)c1ccc(C[C@@H]2CCCC[C@H]2O)cc1", "note": "(mixture of isomers) [Compound 2, (±)-2-[4-(trans-2-hydroxycyclohexylmethyl)phenyl]propionic acid]", "values": [{"measurement": "ED50", "setting": "[1]; [4]", "value": 0.76, "unit": "mg/kg"}, {"measurement": "ED50", "setting": "[2]; [5]", "value": 0.96, "unit": "mg/kg"}]}, {"smiles": "COc1ccc2c(c1)c(CC(=O)O)c(C)n2C(=O)c1ccc(Cl)cc1", "note": "[Compound 3, Indomethacin, reference compound]", "values": [{"measurement": "ED50", "setting": "[1]; Rattus norvegicus, po", "value": 1.6, "unit": "mg/kg"}, {"measurement": "ED50", "setting": "[2]; Rattus norvegicus, 3 h", "value": 2.2, "unit": "mg/kg"}]}]}
